Reference: PMC8963254, “Effects of Lysine N-ζ-Methylation in Ultrashort Tetrabasic Lipopeptides (UTBLPs) on the Potentiation of Rifampicin, Novobiocin, and Niclosamide in Gram-Negative Bacteria” (Antibiotics, 2022)
Read-outs that look alike come from different tables or passages of the source. Non-standard residues stand in square brackets, D forms with d. Residues, ends and D or L forms follow the SMILES beside them. *: point of attachment. Lys(Me) = CNCCCC[C@H](N)C(=O)O; Octanoyl = CCCCCCCC(=O)*

Key:
A. baumannii AB92247 = experiment: microbe, parasite or virus in culture; type: cell-based, Acinetobacter baumannii; details: AB92247, 18 h
Description: (§1) The in vitro antibacterial activity of the UTBLPs was assessed against wild-type and clinically isolated bacterial strains. To obtain the MIC of the compounds, the microbroth dilution susceptibility assay was performed according to the Clinical and Laboratory Standards Institute (CLSI, Wayne, PA, USA) guidelines and as previously described. Briefly, the compounds at varying concentrations were incubated with bacterial inoculum (5 × 10^5 CFU/mL final concentration) at 37 °C for 18 h. Growth in the form of turbidity was confirmed using an EMax Plus microplate reader (Molecular Devices, San Jose, CA, USA) at 590 nm.

A. baumannii AB027 = experiment: microbe, parasite or virus in culture; type: cell-based, Acinetobacter baumannii; details: AB027, 18 h
Description: as §1

MRSE 61589 = type: cell-based, Staphylococcus epidermidis; details: 61589, 18 h
Description: as §1

MSSE 81388 = type: cell-based, Staphylococcus epidermidis; details: 18 h
Description: as §1

A. baumannii ATCC 17978 = type: cell-based, Acinetobacter baumannii; details: ATCC 17978, 18 h
Description: as §1

E. cloacae 118564 = experiment: microbe, parasite or virus in culture; type: cell-based, Enterobacter cloacae; details: 118564, 18 h
Description: as §1

E. coli ATCC 25922 = type: cell-based, Escherichia coli; details: for MICUTBLP: UTBLP alone
Description: (§2) The synergy of the UTBLPs with various antibiotics was assessed using checkerboard assay as previously described. Briefly, the combination of antibiotic and OMP at varying concentrations were incubated with bacterial inoculum (5 × 10^5 CFU/mL final concentration) at 37 °C for 18 h. Growth in the form of turbidity was confirmed using an EMax Plus microplate reader (Molecular Devices, Union City, CA, USA) at 590 nm. Fractional inhibitory concentration index (FICI) was used to evaluate the interaction between the antibiotic and the OMP. FICI is the sum of the FIC of the antibiotic and the FIC of the OMP. The FIC value is calculated by dividing the MIC of the agents in combination by the MIC of the agent alone. FICI ≤ 0.5 is synergistic, 0.5 < x ≤ 4 is additive, and >4 is antagonistic.

E. coli 94474 = type: cell-based, Escherichia coli; details: for MICUTBLP: UTBLP alone
Description: as §2

E. coli 94393 = type: cell-based, Escherichia coli; details: for MICUTBLP: UTBLP alone
Description: as §2

[1] = tested on: P. aeruginosa PA262-101856; experiment: microbe, parasite or virus in culture; type: cell-based, Pseudomonas aeruginosa; details: PA262-101856, 18 h
Description: as §1

[2] = tested on: P. aeruginosa PA259-96196; experiment: microbe, parasite or virus in culture; type: cell-based, Pseudomonas aeruginosa; details: PA259-96196, 18 h
Description: as §1

E. faecium ATCC 27270 = type: cell-based, Enterococcus faecium; details: ATCC 27270, 18 h
Description: as §1

P. aeruginosa PAO1 = type: cell-based, Pseudomonas aeruginosa; details: PAO1, 18 h
Description: as §1

[3] = tested on: P. aeruginosa PA262-101856; type: cell-based, Pseudomonas aeruginosa; details: for MICUTBLP: UTBLP alone
How it was run: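 Checkerboard synergy assay: antibiotic and OMP combined at varying concentrations with 5 × 10^5 CFU/mL inoculum (final), 37 °C, 18 h; growth read as turbidity at 590 nm. FICI = sum of FICs (MIC in combination / MIC alone); ≤0.5 synergistic, 0.5–4 additive, >4 antagonistic.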

MRSA ATCC 33592 = type: cell-based, Staphylococcus aureus; details: for Interpretation: UTBLP + chloramphenicol; for MICUTBLP: UTBLP alone, plate with chloramphenicol; for MICUTBLP [MICcombo]: UTBLP in combination with chloramphenicol; for MICchloramphenicol [MICcombo]: chloramphenicol in combination with the UTBLP
Description: as §2

S. aureus ATCC 29213 = type: cell-based, Staphylococcus aureus; details: for MICUTBLP: UTBLP alone, plate with chloramphenicol; for MICUTBLP [MICcombo]: UTBLP in combination with chloramphenicol; for MICchloramphenicol [MICcombo]: chloramphenicol in combination with the UTBLP
Description: as §2

K. pneumoniae 113250 = experiment: microbe, parasite or virus in culture; type: cell-based, Klebsiella pneumoniae; details: 113250, 18 h
Description: as §1

E. faecalis ATCC 29212 = type: cell-based, Enterococcus faecalis; details: for Interpretation: UTBLP + chloramphenicol; for MICUTBLP: UTBLP alone, plate with chloramphenicol; for MICUTBLP [MICcombo]: UTBLP in combination with chloramphenicol; for MICchloramphenicol [MICcombo]: chloramphenicol in combination with the UTBLP
Description: as §2

[4] = UTBLP in combination with chloramphenicol
[5] = UTBLP in combination with niclosamide
[6] = UTBLP in combination with novobiocin
[7] = UTBLP in combination with rifampicin
[8] = chloramphenicol in combination with the UTBLP
[9] = niclosamide in combination with the UTBLP
[10] = novobiocin in combination with the UTBLP
[11] = rifampicin in combination with the UTBLP

CCCCCCCC(=O)N[C@@H](CCCCNC)C(=O)NCCCN(CCCNC(=O)[C@H](CCCCNC)NC(=O)CCCCCCC)CC(=O)N[C@@H](CCCCNC)C(N)=O [UTBLP 2]
4 µg/mL: MICUTBLP [MICcombo] (E. coli ATCC 25922; [5]) | MICantibiotic [MICcombo] (E. coli 94474; [10])
> 128 µg/mL: MIC (A. baumannii AB92247) | MIC (A. baumannii AB027) | MIC (E. cloacae 118564) | MICUTBLP (E. coli ATCC 25922; plate with chloramphenicol) | MICUTBLP (E. coli ATCC 25922; plate with niclosamide) | MICUTBLP (E. coli ATCC 25922; plate with novobiocin) | MICUTBLP (E. coli ATCC 25922; plate with rifampicin) | MICUTBLP (E. coli 94474; plate with novobiocin) | MICUTBLP (E. coli 94474; plate with rifampicin) | MICUTBLP (E. coli 94393; plate with novobiocin) | MICUTBLP (E. coli 94393; plate with rifampicin) | MIC [1] | MIC [2] | MICUTBLP ([3]; plate with novobiocin) | MICUTBLP ([3]; plate with rifampicin) | MICUTBLP (MRSA ATCC 33592) | MIC (K. pneumoniae 113250) | MICUTBLP (E. faecalis ATCC 29212)
512 µg/mL: MICantibiotic [MICcombo] [3, 10] | MICantibiotic [MICcombo] [3, 11]
0.125 µg/mL: MICantibiotic [MICcombo] (E. coli ATCC 25922; [11]) | MICantibiotic [MICcombo] (E. coli 94393; [11])
Additive (0.5 < x ≤ 4 is additive): Interpretation (E. coli ATCC 25922; UTBLP + chloramphenicol) | Interpretation ([3]; UTBLP + novobiocin) | Interpretation ([3]; UTBLP + rifampicin) | Interpretation (MRSA ATCC 33592) | Interpretation (E. faecalis ATCC 29212)
64 µg/mL: MIC (MRSE 61589) | MIC (MSSE 81388) | MICchloramphenicol [MICcombo] (MRSA ATCC 33592)
1 µg/mL: MICantibiotic [MICcombo] (E. coli ATCC 25922; [10]) | MICantibiotic [MICcombo] (E. coli 94393; [10])
8 µg/mL: MICUTBLP [MICcombo] (E. coli ATCC 25922; [6]) | MICchloramphenicol [MICcombo] (E. faecalis ATCC 29212)
>128 µg/mL: MIC (A. baumannii ATCC 17978) | MIC (E. faecium ATCC 27270) | MIC (P. aeruginosa PAO1)
16 µg/mL: MICUTBLP [MICcombo] (E. coli ATCC 25922; [7]) | MICUTBLP [MICcombo] (E. coli 94474; [6]) | MICUTBLP [MICcombo] (E. coli 94474; [7]) | MICUTBLP [MICcombo] (E. coli 94393; [6]) | MICUTBLP [MICcombo] (E. coli 94393; [7]) | MICUTBLP [MICcombo] [3, 6] | MICchloramphenicol [MICcombo] (S. aureus ATCC 29213)
Synergy (FICI ≤ 0.5 is synergistic): Interpretation (E. coli ATCC 25922; UTBLP + niclosamide) | Interpretation (E. coli ATCC 25922; UTBLP + novobiocin) | Interpretation (E. coli ATCC 25922; UTBLP + rifampicin) | Interpretation (E. coli 94474; UTBLP + novobiocin) | Interpretation (E. coli 94474; UTBLP + rifampicin) | Interpretation (E. coli 94393; UTBLP + novobiocin) | Interpretation (E. coli 94393; UTBLP + rifampicin)
128 µg/mL: MICUTBLP (S. aureus ATCC 29213)
0.5 µg/mL: MICantibiotic [MICcombo] (E. coli 94474; [11])
2 µg/mL: MICantibiotic [MICcombo] (E. coli ATCC 25922; [8]) | MICantibiotic [MICcombo] (E. coli ATCC 25922; [9])
0.25 µg/mL: MICUTBLP [MICcombo] (E. coli ATCC 25922; [4]) | MICUTBLP [MICcombo] [3, 7] | MICUTBLP [MICcombo] (MRSA ATCC 33592) | MICUTBLP [MICcombo] (S. aureus ATCC 29213) | MICUTBLP [MICcombo] (E. faecalis ATCC 29212)

CCCCCCCC(=O)NCCCC[C@H](NC(=O)CCCCCCC)C(=O)N[C@@H](CCCCNC)C(=O)N[C@@H](CCCCNC)C(=O)N[C@@H](CCCCNC)C(=O)N[C@@H](CCCCNC)C(N)=O [UTBLP 6] (Octanoyl-K(Octanoyl)[Lys(Me)][Lys(Me)][Lys(Me)][Lys(Me)]-NH2)
> 128 µg/mL: MIC (A. baumannii AB027) | MIC (E. cloacae 118564) | MICUTBLP (E. coli 94474; plate with novobiocin) | MICUTBLP (E. coli 94474; plate with rifampicin) | MIC [1] | MIC [2] | MICUTBLP ([3]; plate with novobiocin) | MICUTBLP ([3]; plate with rifampicin) | MICUTBLP (MRSA ATCC 33592) | MIC (K. pneumoniae 113250)
8 µg/mL: MICUTBLP [MICcombo] (E. coli ATCC 25922; [4])
0.125 µg/mL: MICantibiotic [MICcombo] (E. coli 94474; [11])
4 µg/mL: MICUTBLP [MICcombo] (E. coli ATCC 25922; [7]) | MICUTBLP [MICcombo] (E. coli 94393; [6]) | MICUTBLP [MICcombo] (E. coli 94393; [7]) | MICchloramphenicol [MICcombo] (S. aureus ATCC 29213) | MICUTBLP [MICcombo] (E. faecalis ATCC 29212) | MICchloramphenicol [MICcombo] (E. faecalis ATCC 29212)
128 µg/mL: MICantibiotic [MICcombo] [3, 10] | MICUTBLP (S. aureus ATCC 29213)
>128 µg/mL: MIC (P. aeruginosa PAO1)
0.25 µg/mL: MICantibiotic [MICcombo] (E. coli 94393; [11]) | MICUTBLP [MICcombo] (MRSA ATCC 33592)
2 µg/mL: MICUTBLP [MICcombo] (E. coli ATCC 25922; [6]) | MICantibiotic [MICcombo] (E. coli ATCC 25922; [8]) | MICantibiotic [MICcombo] (E. coli ATCC 25922; [9])
Additive (0.5 < x ≤ 4 is additive): Interpretation ([3]; UTBLP + rifampicin) | Interpretation (MRSA ATCC 33592) | Interpretation (E. faecalis ATCC 29212)
0.5 µg/mL: MICantibiotic [MICcombo] (E. coli ATCC 25922; [10])
256 µg/mL: MICantibiotic [MICcombo] [3, 11]
64 µg/mL: MIC (A. baumannii ATCC 17978) | MICUTBLP (E. coli 94393; plate with novobiocin) | MICUTBLP (E. coli 94393; plate with rifampicin) | MIC (E. faecium ATCC 27270) | MICchloramphenicol [MICcombo] (MRSA ATCC 33592)
0.063 µg/mL: MICantibiotic [MICcombo] (E. coli ATCC 25922; [11])
1 µg/mL: MICUTBLP [MICcombo] (E. coli ATCC 25922; [5]) | MICantibiotic [MICcombo] (E. coli 94474; [10]) | MICantibiotic [MICcombo] (E. coli 94393; [10])
16 µg/mL: MIC (MRSE 61589) | MIC (MSSE 81388) | MICUTBLP [MICcombo] (E. coli 94474; [6]) | MICUTBLP [MICcombo] (E. coli 94474; [7]) | MICUTBLP [MICcombo] [3, 6] | MICUTBLP [MICcombo] [3, 7] | MICUTBLP [MICcombo] (S. aureus ATCC 29213)
Synergy (FICI ≤ 0.5 is synergistic): Interpretation (E. coli ATCC 25922; UTBLP + chloramphenicol) | Interpretation (E. coli ATCC 25922; UTBLP + niclosamide) | Interpretation (E. coli ATCC 25922; UTBLP + novobiocin) | Interpretation (E. coli ATCC 25922; UTBLP + rifampicin) | Interpretation (E. coli 94474; UTBLP + novobiocin) | Interpretation (E. coli 94474; UTBLP + rifampicin) | Interpretation (E. coli 94393; UTBLP + novobiocin) | Interpretation (E. coli 94393; UTBLP + rifampicin) | Interpretation ([3]; UTBLP + novobiocin)
32 µg/mL: MIC (A. baumannii AB92247) | MICUTBLP (E. coli ATCC 25922; plate with chloramphenicol) | MICUTBLP (E. coli ATCC 25922; plate with niclosamide) | MICUTBLP (E. coli ATCC 25922; plate with novobiocin) | MICUTBLP (E. coli ATCC 25922; plate with rifampicin) | MICUTBLP (E. faecalis ATCC 29212)
